Assay results reported in the supplement of paper PMC13380429.
± gives the standard deviation of the averaged measurements.

Key:
Details in all cases: 72 h
[1] = test system: Calu-3; test: relative viability EC50 (midpoint between 100% and the lowest measured viability); higher = less toxic
[2] = test system: U2OS; test: as above
[3] = test system: Vero E6; test: as above
[4] = test system: HepG2; test: as above
[5] = test system: Caco-2; test: as above
[6] = test system: Calu-3; test: cell viability relative to DMSO; higher = less toxic
[7] = test system: U2OS; test: as above
[8] = test system: Vero E6; test: as above
[9] = test system: HepG2; test: as above
[10] = test system: Caco-2; test: as above
[11] = test system: Calu-3; test: drug sensitivity score (DSS) for viability; higher = more toxic; extreme values may be limits of the assay
[12] = test system: U2OS; test: as above
[13] = test system: Vero E6; test: as above
[14] = test system: HepG2; test: as above
[15] = test system: Caco-2; test: as above

Structure (SMILES)	relative viability EC50 [1] [µM]	relative viability EC50 [2] [µM]	relative viability EC50 [3] [µM]	relative viability EC50 [4] [µM]	relative viability EC50 [5] [µM]	cell viability ([6]; 1 nM) [%]	cell viability ([6]; 10 nM) [%]	cell viability ([6]; 100 nM) [%]	cell viability ([6]; 1000 nM) [%]	cell viability ([6]; 10000 nM) [%]	cell viability ([7]; 1 nM) [%]	cell viability ([7]; 10 nM) [%]	cell viability ([7]; 100 nM) [%]	cell viability ([7]; 1000 nM) [%]	cell viability ([7]; 10000 nM) [%]	cell viability ([8]; 1 nM) [%]	cell viability ([8]; 10 nM) [%]	cell viability ([8]; 100 nM) [%]	cell viability ([8]; 1000 nM) [%]	cell viability ([8]; 10000 nM) [%]	cell viability ([9]; 1 nM) [%]	cell viability ([9]; 10 nM) [%]	cell viability ([9]; 100 nM) [%]	cell viability ([9]; 1000 nM) [%]	cell viability ([9]; 10000 nM) [%]	cell viability ([10]; 1 nM) [%]	cell viability ([10]; 10 nM) [%]	cell viability ([10]; 100 nM) [%]	cell viability ([10]; 1000 nM) [%]	cell viability ([10]; 10000 nM) [%]	drug sensitivity score [11]	drug sensitivity score [12]	drug sensitivity score [13]	drug sensitivity score [14]	drug sensitivity score [15]
Clc1ccc(CO/N=C(\Cn2ccnc2)c2ccc(Cl)cc2Cl)c(Cl)c1 [oxiconazole]	> 10	> 10	> 10	> 10	> 10	97.5	87.3	83.4	94.8	103	100	97.3	97.6	91.1	92	99.9	105	95.4	102	95.5	97.4	103	105	98.5	89.7	106	94.8	99.8	90	83.5	0	0	0	0	1.1
N=C(C[C@@H](O)COc1ccccc1-c1ccccc1)N1CCCCC1	> 10	> 10	> 10	> 10	> 10	100	98.2	90.1	104	83.6	99.9	103	96.8	102	92.8	97.5	102	96.6	96.8	102	92.8	94.5	109	84.4	101	95.7	100	81.8	96.6	89.5	0.2	0	0	0	0
CC(=O)[C@H]1CC[C@H]2[C@@H]3CC[C@H]4C[C@H](O)CC[C@]4(C)[C@H]3C(=O)C[C@]12C [alfaxalone]	> 10	> 10	> 10	> 10	> 10	94.7	99.9	87.7	97.4	101	97.8	99.2	97.7	103	102	99.6	95.9	99.7	94.3	107	98.6	102	94.1	96.1	106	101	101	89.6	103	104	0	0	0	0	0
CNCC(O)c1ccc(OC(=O)C(C)(C)C)c(OC(=O)C(C)(C)C)c1 (stereo unspecified) [dipivefrine]	> 10	> 10	> 10	> 10	> 10	97.9	102	106	96.3	109	99.4	95.1	97.3	96.2	97.1	100	100	93.3	98.3	97.4	97.5	94.1	98.2	97.7	84.3	104	94	102	90.4	85	0	0	0	0.5	0.9
Nc1cc(C(F)(F)F)c(-c2nc(N3CCOCC3)nc(N3CCOCC3)n2)cn1 [PI3K-IN-2]	0.376	2.07	1.12	0.935	1.12	88.3	102	78.1	48	21.4	103	106	99	89.7	24.5	106	106	105	70	30	124	106	101	59.4	25.1	107	106	97.7	63.3	17.1	12.4	5.9	7.8	9.1	9.1
CCNC1(C(N)=O)CCN(c2ncnc3c2nc(-c2ccccc2Cl)n3-c2ccc(Cl)cc2)CC1 [CP-945,598]	> 10	> 10	> 10	> 10	> 10	109	102	97.5	108	104	104	104	101	98.1	95.7	101	103	98.6	101	104	103	95.6	100	95.3	86.6	96.2	98.9	88.3	80.7	89.3	0	0	0	0.4	3.1
CCCCCCCCCCCCCCCC[N+](C)(C)C [cetrimonium]	1.44	1.83	1.91	2.43	1.9	97.7	97.8	109	83.6	43.1	99	95	97.5	84.6	14.3	96.5	93.5	97.7	87.5	23.8	97.9	93.2	96.5	93.6	28	92.7	95.9	96.3	86.6	18.5	5.5	7.3	6.3	5	6.8
COCC1(CO)C(=O)C2CCN1CC2 (stereo unspecified) [APR-246]	> 10	> 10	> 10	> 10	> 10	96.7	87.5	111	90.4	94.5	100	94.9	99.8	96.3	99.5	97.1	99.3	96.6	97.8	93.1	93	99.7	96.6	112	91.8	99.5	94.7	95.1	94.2	94.6	0	0	0	0	0
C[C@@H](CN1CCC(Cc2ccccc2)CC1)[C@@H](O)c1ccc(O)cc1 [Ro-25-6981]	> 10	> 10	> 10	> 10	> 10	97.4	98.2	89.1	95.8	107	99.1	102	96.5	96.8	100	103	102	103	107	99.8	93.9	100	102	101	102	97.1	92.3	86.9	94.4	94.3	0	0	0	0	0
CC1(C)O[C@@H]2C[C@H]3[C@@H]4C[C@H](F)C5=CC(=O)C=C[C@]5(C)[C@H]4[C@@H](O)C[C@]3(C)[C@]2(C(=O)CO)O1 [flunisolide]	> 10	> 10	> 10	> 10	> 10	98.5	96.1	101	94.5	88.5	102	93.9	91.4	93.8	94.7	96.6	97.6	95.3	94.2	102	105	104	97.3	97.3	99.2	105	103	91.5	87.7	98.5	0.2	0	0	0	1
CC(C)(C)C(=O)OCOP(=O)(COCCn1cnc2c(N)ncnc21)OCOC(=O)C(C)(C)C [adefovir-dipivoxil]	2.46	> 10	> 10	0.741	> 10	92.9	97.6	106	95.5	47.6	96.2	101	97.8	102	75.5	101	106	107	99.7	89.3	106	93.8	101	49.1	25.2	93.7	87.6	87.5	95.4	75.6	3.5	0.8	0	10.1	1.9
Cc1c(CN2CCN(C(=O)[C@H](C)O)CC2)sc2c(N3CCOCC3)nc(-c3cnc(N)nc3)nc12 [GDC-0980]	0.537	1.53	0.899	0.67	0.561	107	101	93.6	42.2	19.2	101	98	98.8	78.9	18.1	96.5	101	87.7	62.9	23.4	104	102	89.9	49.5	15.9	99.4	88.5	93.1	47.8	22.4	11.9	7.8	8.8	11.1	11
N#Cc1ccc2[nH]c(O)c(-c3ccc(CN4CCOCC4)cn3)c2c1 [AZD1080]	> 10	> 10	> 10	> 10	> 10	105	107	100	112	91.2	95.3	105	95.8	105	99.5	99.1	97.6	98.2	108	82	107	99.3	102	112	82.7	96.3	100	106	113	84.6	0	0	0.2	0.2	0.1
CC1=C(C(=O)O)N2C(=O)[C@@H](NC(=O)[C@H](N)C3=CCC=CC3)[C@H]2SC1 [cephradine]	> 10	> 10	> 10	> 10	> 10	92.7 ± 0.85	98.1 ± 5.7	98.3 ± 2	106 ± 9.1	89.2 ± 6	96.4 ± 0.99	99.7 ± 2.4	100 ± 3.5	103.8 ± 0.78	101.7 ± 0.78	95.2 ± 3	97 ± 3.8	94.5 ± 3	98.4 ± 4.1	99.2 ± 1.1	99.9 ± 3.4	94.2 ± 3.5	98 ± 7.6	102 ± 10	108 ± 3.1	96.75 ± 0.92	100 ± 9.7	94.8 ± 0.85	98 ± 3.8	103 ± 14	0.15 ± 0.21	0	0	0	0
CC(C)SC(=N)N [S-isopropylisothiourea]	> 10	> 10	> 10	> 10	> 10	100	99.5	102	97.1	84.8	96.9	98.2	96.3	103	102	103	99.2	99.5	89.9	97.2	101	109	103	94.5	108	99	95	96.7	105	91.9	0.5	0	0	0	0
O=C(O)Cn1c2c(c3cc(F)ccc31)CN(C(=O)c1cccc3ccccc13)CC2 [setipiprant]	> 10	> 10	> 10	> 10	> 10	91.9	115	93.1	98.7	86.5	101	105	102	104	98.4	94.2	102	97.3	99.9	102	98	96.3	108	101	102	91	103	103	95	99.1	0.2	0	0	0	0
CCCS(=O)(=O)Nc1ccc(F)c(C(=O)c2c[nH]c3ncc(-c4ccc(Cl)cc4)cc23)c1F [vemurafenib]	> 10	> 10	> 10		> 10	102	105	106	95.8	90.1	96.6	100	95.2	104	86.8	106	104	100	111	91.7	113	103	98.3	107	54.5	109	97.3	117	107	77	0	0.1	0	1.9	0.5
Nc1nc2c(c(N3CCNCC3)n1)CCC1=C2[C@@H]2CCCC[C@@H]2O1	> 10	> 10	> 10		> 10	104	105	101	106	96.4	102	100	99.5	98.8	101	96.3	93	93.6	88.5	90	94.8	105	109	102	54.2	99.3	95.5	93	91.5	103	0	0	0.1	2.2	0
O=C(N/N=C/c1ccc(O)c(O)c1)c1cc2ccccc2cc1O [dynasore]	> 10	> 10	> 10		> 10	108	97.5	104	103	97.4	95.9	102	103	106	87.9	103	98.3	102	103	97.2						98.4	95.8	101	104	92.8	0	0	0		0
N#Cc1ccc(-c2csc(NN=C3CCCC3)n2)cc1 [remodelin]	> 10	> 10	> 10		> 10	102	102	96.3	116	93	98.3	102	99.3	105	95.5	98.3	103	102	99.2	105	105	97.2	109	92.3	73.1	95.5	99.7	94.8	103	76.6	0	0	0	2.2	0.7
CCc1nn(CCCN2CCN(c3cccc(Cl)c3)CC2)c(=O)n1CCOc1ccccc1 [nefazodone]	> 10	> 10	> 10		> 10	103	94.6	96.7	96.3	96.8	106	100	101	99	97.4	95.6	101	97.5	102	96.6	93.2	91.5	95.7	97.6	70.8	96.4	95.3	100	99.8	86.3	0	0	0	1.6	0.1
CN1[C@@H]2CC[C@H]1C[C@@H](OC(c1ccc(F)cc1)c1ccc(F)cc1)C2 [3-alpha-bis-(4-fluorophenyl)-methoxytropane]	> 10	> 10	> 10		> 10	109	106	99.5	126	86.5	102	96.1	101	96.8	93.1	102	103	100	97.9	86.1	102	96.3	92	93.6	74.1	95.5	90.9	92.6	102	102	0	0	0.3	1.6	0
COc1ccc(Cc2nc(O)c3c(C)nc([C@@H](CCCc4ccccc4)[C@@H](C)O)n3n2)cc1OC [BAY-60-7550]	> 10	> 10	> 10		> 10	103	100	118	96.6	101	101	106	101	103	94.6	103	105	98.5	98.1	95.2						95.7	101	95.5	92.4	93.1	0	0	0		0
